Test results from patent US20050258288A1, “High pressure media milling system and process of forming particles” (E. I. du Pont de Nemours and Company, priority 2003, published 2005).
One block for each molecule: values may come before it.

What was measured:
[1] = Particle size of milled product by Malvern Mastersizer 2000 (laser diffraction); type: physicochemical; conditions: for X10 / X50 / X90 (90% cumulative undersize): Example 4: piroxicam milled in supercritical CO2, 120 min, by collection method
[2] = Surface area measurements (BET) of milled product; type: physicochemical; conditions: Example 4: piroxicam milled in supercritical CO2; for BET: Table 2
Source text: The yield of the run with the depressurization was 10.7 grams, while in the case of the nozzle dispersion only 2.4 grams were recovered.

[3] = Example 2: ibuprofen + sodium lauryl sulfate milled in supercritical CO2, ceramic media, 60 min
[4] = Example 1: lactose + oleic acid milled in supercritical CO2, nylon media, 60 min
[5] = Example 3: lactose mono hydrate + Span85 milled in liquified HFC 134a, 1000 psi, 60 min

X10 [1]: 0.08 micron
X50 [1]: 0.26 micron
X90 (90% cumulative undersize) [1]: 2.04 micron
BET [2]: 9.4 sq. m/g
surface area (BET), specific surface area ([2]; listed as nozzle dispersed material): 9.7 sq meter per gram
Compound: CN1C(C(=O)Nc2ccccn2)=C(O)c2ccccc2S1(=O)=O [Test 2, piroxicam]

X10 [1]: 3.00 micron
X50 [1]: 5.70 micron
X90 (90% cumulative undersize) [1]: 10.9 micron
BET [2]: 11.8 sq. m/g
surface area (BET), specific surface area ([2]; listed as product collected in the filter before depressurization): 11.8 sq meter per gram
Compound: CN1C(C(=O)Nc2ccccn2)=C(O)c2ccccc2S1(=O)=O [Test 1, piroxicam]

10% cumulative undersize [1, 3]: 1.097 micron
median size [1, 3]: 2.6 micron
90% cumulative undersize ([1]; Example 2: ibuprofen + sodium lauryl sulfate milled in supercritical CO2, due to agglomeration): 219 microns
Compound: CC(C)Cc1ccc(C(C)C(=O)O)cc1 (stereo not shown) [ibuprofen]

10% cumulative undersize [1, 4]: 3.0 micron
90% cumulative undersize [1, 4]: 796 micron
median particle size ([1]; Example 1: lactose + oleic acid milled in supercritical CO2, nylon media, 60 min, collected in high pressure filter): 75.889 microns
10% cumulative undersize [1, 5]: 1.059 micron
90% cumulative undersize [1, 5]: 553 micron
median particle size [1, 5]: 4.4 microns
Compound: OC[C@H]1O[C@@H](O[C@H]2[C@H](O)[C@@H](O)C(O)O[C@@H]2CO)[C@H](O)[C@@H](O)[C@H]1O (stereo partly shown) [lactose]
